*1 amine or outer side, *2 acyl side, *3 side chain or, on linkers, in order; H or OH if unused. Where a SMILES comes first, the peptide text is derived from it. Side-chain parts run from the residue outwards. [ ]: non-standard residue; d: D form. The star is where a group is joined. PEG28 = NCCOCCOCCOCCOCCOCCOCCOCCOCCOCCOCCOCCOCCOCCOCCOCCOCCOCCOCCOCCOCCOCCOCCOCCOCCOCCOCCOCCOCCC(=O)O; X2 = CC(C)CCC[C@@H](C)[C@H]1CC[C@H]2[C@@H]3CC=C4C[C@@H](OC(=O)C*)CC[C@]4(C)[C@H]3CC[C@]12C; N(octadecyl)2 = CCCCCCCCCCCCCCCCCCN(CCCCCCCCCCCCCCCCCC)*; NHOctadecyl = CCCCCCCCCCCCCCCCCCN*; PEG4 = NCCOCCOCCOCCOCCC(=O)O; Suc = O=C(CCC(=O)[*:2])[*:1]
Tests used:
[1] = Visual stability and aspect of POPC vesicles mixed with PAs (SAXS samples); assay type: physicochemical; settings: POPC 20 mM + 2 mM PA, 0.5% DMSO
Protocol: In Figure 5A,B, we show the spectra corresponding to POPC 20 mM and POPC 20 mM + 2 mM PAs (all of them in the presence of 0.5% DMSO). The band centered at 1.2 nm^–1 and the secondary band at 3.2 nm^–1 were typical of unilamellar vesicles.[35]
The incorporation of PAs had some distinct consequences. The first and more obvious one is the distinction between stable and unstable systems.

[2] = system: HIV-1BaL; assay type: cell-based; settings: HIV-1BaL, TZM-bl cells; peptide 10-0.00061 μM for 1 h at 37 °C before virus; luciferase after 48 h; sigmoid fit; mean of triplicates
Protocol: HIV-1BaL[52] was provided by the NIH AIDS Research & Reference Reagent Program (http://www.aidsreagent.org/). Viral stock was prepared by passage through activated PBMCs[53] for 11 days.
Luciferase-reporter HeLa cells stably transfected to express CD4 and CCR5; TZM-bl cells[54]−[56] were grown in Dulbecco’s Minimal Essential Medium (DMEM) (Sigma-Aldrich, Inc., St. Louis, MO) containing 10% fetal calf serum (FCS), 2 mM L-glutamine, and antibiotics (100 U of penicillin/mL, 100 μg of streptomycin/mL) at 37 °C in an atmosphere containing 5% CO2.
All inhibition assays in cellular and tissue explants models were performed using a standardized amount of virus culture supernatant normalized for infectivity. TZM-bl cells were incubated with serial dilutions of peptides (from 10 μM to 0.00061 μM) for 1 h at 37 °C, prior to challenge with HIV-1BaL. Luciferase expression (r.l.u. values) was determined after 48 h. Alternatively, tissue explants were incubated with serial dilutions of peptide (from 100 μM to 0.1 μM) for 1 h before virus (10^4 TCID50/mL) was added for 2 h. Explants were then washed four times with PBS to remove unbound virus and drug. Colorectal explants were then transferred onto gelfoam rafts (Welbeck Pharmaceuticals, UK) and cultured for 15 days as described previously[57] […]. Explants were cultured for up to 15 days in the absence of peptide. Approximately 50% of the supernatants were harvested every 2–3 days and explants were re-fed with fresh media. The extent of viral replication in tissue explants was determined by measuring the p24 antigen concentration in supernatants (INNOTEST HIV antigen mAb; Fujirebio Europe, Belgium). The extent of inhibition by each peptide was calculated. The percentage of inhibition was normalized relative to the r.l.u, for TZM-bl cells, or p24, for tissue explants, values obtained for cells or explants cultured in the absence of virus (100% inhibition) and for cells or explants infected with virus in the absence of peptide (0% inhibition). Data are the mean (±SEM) of triplicates. When a dose–response curve was obtained, IC50 and, if possible, IC95 values were calculated from sigmoid curve fits (GraphPad Prism). For all curves, R^2 is >0.7.

[3] = MTT cytotoxicity assay; assay type: cell-based; settings: human, HeLa-env cells, PAs coassembled with 5% FAM, 40-2.3 μM, absorbance 560 nm
Protocol: The metabolic activity of the cell line, related to the cytotoxic effect of the compounds to be tested, is measured after 24 h using the MTT assay. This assay is based on the metabolic reduction of 3-(4,5-dimethylthiazol-2-yl)-2,5-diphenyl-2H-tetrazolium bromide (MTT), carried out by the mitochondrial enzyme succinate dehydrogenase, in a colored compound of blue color (formazan) that can be monitored by absorbance spectroscopy at 560 nm, allowing determination of the mitochondrial functionality of the treated cells.
The HeLa-env cell line is seeded in 96-well plates with an initial density of 15,000 cells per well in 100 μL of culture medium (Dulbecco’s modified Eagle’s medium, DMEM, with 10% FBS added) and incubated for 24 h at 37 °C and 5% CO2 to allow their adhesion. The cell monolayers are washed with PBS, and then 100 μL of PAs formulations (peptide amphiphiles coassembled with 5% FAM) are added in a concentration range from 40 μM to 2.3 μM. The plates are kept in incubation for further 24 h.
At the end of the incubation time, the cells are incubated for 3 h with 1 mg/mL of MTT, dissolved in culture medium without FBS, to allow the formation of formazan crystals. Subsequently, 100 μL of DMSO are added to wells, stirring the plates for 30 min at room temperature to facilitate the complete dissolution of the crystals. Finally, the absorbance at 560 nm is measured in a microplate reader.
The results are expressed as relative percentage between absorbance of PA formulations against absorbance of its DMSO controls and CC50 and CC25 values are taken from dose–response curves.

[4] = parameters: method as in 2 sources, ref 31, 32 = [31]; doi:10.1007/BF02682570; Schick M. J. ( 1966 ) Micelle formation in mixtures of nonionic and cationic detergents . J. Am. Oil Chem. Soc. 43 , 681 – 682 . 10.1007/BF02682570 . || [32]; doi:10.1016/0021-9797(70)90007-X; Barry B. W.; Morrison J. C.; Russell G. F. ( 1970 ) Prediction of the critical micelle concentration of mixtures of alkyltrimethylammonium salts . J. Colloid Interface Sci. 33 , 554 – 561 . 10.1016/ ||| ref 33, 34 = [33]; PMID 17658541; doi:10.1016/j.jcis.2007.06.010; Rodríguez J. L.; Sierra M. B.; Messina P. V.; Morini M. A.; Schulz P. C.; del Burgo P.; Junquera E.; Rodríguez A.; Aicart E. ( 2007 ) Surface and bulk properties of aqueous decyltrimethylammon || [34]; PMID 25356774; doi:10.1039/C4SM01575D; Pucci C.; Pérez L.; La Mesa C.; Pons R. ( 2014 ) Characterization and stability of catanionic vesicles formed by pseudo-tetraalkyl surfactant mixtures . Soft Matter 10 , 9657 – 9667 . 10.1039/C4SM0; settings: cited from earlier work

Compound	stability / aspect of the sample [1]	IC50 [2] [nM]	CC50 at 24 h [3] [nM]	CMC [4] [mM]
CCCCCCCCCCCCCCCCCCNC(=O)CCC(=O)NCCOCCOCCOCCOCCOCCOCCOCCOCCOCCOCCOCCOCCOCCOCCOCCOCCOCCOCCOCCOCCOCCOCCOCCOCCOCCOCCOCCOCCC(=O)NCCCC[C@H](NC(=O)[C@H](Cc1c[nH]c2ccccc12)NC(=O)[C@H](CC(C)C)NC(=O)[C@H](Cc1ccc(O)cc1)NC(=O)[C@H](CCC(=O)O)NC(=O)[C@H](CC(C)C)NC(=O)[C@@H](NC(=O)[C@@H](N)Cc1c[nH]c2ccccc12)[C@@H](C)CC)C(=O)N[C@H](C(=O)N1CCC[C@H]1C(=O)N[C@@H](Cc1ccccc1)C(=O)N[C@@H](CC(=O)O)C(=O)N[C@@H](Cc1ccccc1)C(=O)N[C@@H](Cc1c[nH]c2ccccc12)C(=O)N[C@@H](CCCNC(=N)N)C(=O)NCC(=O)N[C@H](C(=O)N[C@H](C(N)=O)[C@@H](C)CC)C(C)C)C(C)C [K-PAmonoalkyl] (H-WILEYLWK([PEG28-Suc-NHOctadecyl])VPFDFWRGVI-NH2)	milky	370	23000	
CC[C@H](C)[C@H](NC(=O)[C@@H](NC(=O)CNC(=O)[C@H](CCCNC(=N)N)NC(=O)[C@H](Cc1c[nH]c2ccccc12)NC(=O)[C@H](Cc1ccccc1)NC(=O)[C@H](CC(=O)O)NC(=O)[C@H](Cc1ccccc1)NC(=O)[C@@H]1CCCN1C(=O)[C@@H](NC(=O)[C@H](CCCCN)NC(=O)[C@H](Cc1c[nH]c2ccccc12)NC(=O)[C@H](CC(C)C)NC(=O)[C@H](Cc1ccc(O)cc1)NC(=O)[C@H](CCC(=O)O)NC(=O)[C@H](CC(C)C)NC(=O)[C@@H](NC(=O)[C@H](Cc1c[nH]c2ccccc12)NC(=O)CCOCCOCCOCCOCCOCCOCCOCCOCCOCCOCCOCCOCCOCCOCCOCCOCCOCCOCCOCCOCCOCCOCCOCCOCCOCCOCCOCCOCCNC(=O)[C@@H](N)CSCC(=O)O[C@H]1CC[C@@]2(C)C(=CC[C@H]3[C@@H]4CC[C@H]([C@H](C)CCCC(C)C)[C@@]4(C)CC[C@@H]32)C1)[C@@H](C)CC)C(C)C)C(C)C)C(N)=O [N-PAchol] (H-C(X2)[PEG28]WILEYLWKVPFDFWRGVI-NH2)	milky	120	> 40000	
CCCCCCCCCCCCCCCCCCN(CCCCCCCCCCCCCCCCCC)C(=O)CCC(=O)NCCOCCOCCOCCOCCOCCOCCOCCOCCOCCOCCOCCOCCOCCOCCOCCOCCOCCOCCOCCOCCOCCOCCOCCOCCOCCOCCOCCOCCC(=O)N[C@@H](Cc1c[nH]c2ccccc12)C(=O)N[C@H](C(=O)N[C@@H](CC(C)C)C(=O)N[C@@H](CCC(=O)O)C(=O)N[C@@H](Cc1ccc(O)cc1)C(=O)N[C@@H](CC(C)C)C(=O)N[C@@H](Cc1c[nH]c2ccccc12)C(=O)N[C@@H](CCCCN)C(=O)N[C@H](C(=O)N1CCC[C@H]1C(=O)N[C@@H](Cc1ccccc1)C(=O)N[C@@H](CC(=O)O)C(=O)N[C@@H](Cc1ccccc1)C(=O)N[C@@H](Cc1c[nH]c2ccccc12)C(=O)N[C@@H](CCCNC(=N)N)C(=O)NCC(=O)N[C@H](C(=O)N[C@H](C(N)=O)[C@@H](C)CC)C(C)C)C(C)C)[C@@H](C)CC [N-PAdialkyl] ({N(octadecyl)2-Suc-PEG28}-WILEYLWKVPFDFWRGVI-NH2)	precipitated rather fast and made compact flocks	150	> 40000	
CCCCCCCCCCCCCCCCCCNC(=O)CCC(=O)NCCOCCOCCOCCOCCC(=O)N[C@@H](Cc1c[nH]c2ccccc12)C(=O)N[C@H](C(=O)N[C@@H](CC(C)C)C(=O)N[C@@H](CCC(=O)O)C(=O)N[C@@H](Cc1ccc(O)cc1)C(=O)N[C@@H](CC(C)C)C(=O)N[C@@H](Cc1c[nH]c2ccccc12)C(=O)N[C@@H](CCCCN)C(=O)N[C@H](C(=O)N1CCC[C@H]1C(=O)N[C@@H](Cc1ccccc1)C(=O)N[C@@H](CC(=O)O)C(=O)N[C@@H](Cc1ccccc1)C(=O)N[C@@H](Cc1c[nH]c2ccccc12)C(=O)N[C@@H](CCCNC(=N)N)C(=O)NCC(=O)N[C@H](C(=O)N[C@H](C(N)=O)[C@@H](C)CC)C(C)C)C(C)C)[C@@H](C)CC [PA1PEG3] ({NHOctadecyl-Suc-PEG4}-WILEYLWKVPFDFWRGVI-NH2)		230	> 40000	
CCCCCCCCCCCCCCCCCCN(CCCCCCCCCCCCCCCCCC)C(=O)CCC(=O)NCCOCCOCCOCCOCCC(=O)N[C@@H](Cc1c[nH]c2ccccc12)C(=O)N[C@H](C(=O)N[C@@H](CC(C)C)C(=O)N[C@@H](CCC(=O)O)C(=O)N[C@@H](Cc1ccc(O)cc1)C(=O)N[C@@H](CC(C)C)C(=O)N[C@@H](Cc1c[nH]c2ccccc12)C(=O)N[C@@H](CCCCN)C(=O)N[C@H](C(=O)N1CCC[C@H]1C(=O)N[C@@H](Cc1ccccc1)C(=O)N[C@@H](CC(=O)O)C(=O)N[C@@H](Cc1ccccc1)C(=O)N[C@@H](Cc1c[nH]c2ccccc12)C(=O)N[C@@H](CCCNC(=N)N)C(=O)NCC(=O)N[C@H](C(=O)N[C@H](C(N)=O)[C@@H](C)CC)C(C)C)C(C)C)[C@@H](C)CC [PA2PEG3] ({N(octadecyl)2-Suc-PEG4}-WILEYLWKVPFDFWRGVI-NH2)			> 40000	
CC[C@H](C)[C@H](NC(=O)[C@@H](NC(=O)CNC(=O)[C@H](CCCNC(=N)N)NC(=O)[C@H](Cc1c[nH]c2ccccc12)NC(=O)[C@H](Cc1ccccc1)NC(=O)[C@H](CC(=O)O)NC(=O)[C@H](Cc1ccccc1)NC(=O)[C@@H]1CCCN1C(=O)[C@@H](NC(=O)[C@H](CCCCN)NC(=O)[C@H](Cc1c[nH]c2ccccc12)NC(=O)[C@H](CC(C)C)NC(=O)[C@H](Cc1ccc(O)cc1)NC(=O)[C@H](CCC(=O)O)NC(=O)[C@H](CC(C)C)NC(=O)[C@@H](NC(=O)[C@H](Cc1c[nH]c2ccccc12)NC(=O)CCOCCOCCOCCOCCNC(=O)[C@@H](N)CSCC(=O)O[C@H]1CC[C@@]2(C)C(=CC[C@H]3[C@@H]4CC[C@H]([C@H](C)CCCC(C)C)[C@@]4(C)CC[C@@H]32)C1)[C@@H](C)CC)C(C)C)C(C)C)C(N)=O [PA3PEG3] (H-C(X2)[PEG4]WILEYLWKVPFDFWRGVI-NH2)		2010	> 40000	
CCCCCCCCCC[N+](C)(C)C.[Br-] [decyl trimethyl ammonium bromide]				66.8
CCCCCCCCCC[N+](C)(C)CCCCCCCCCC.[Br-] [didecyl dimethyl ammonium bromide]				1.4
